{"source": "patent US4666931A", "about": "“Benzofuran derivatives useful in treating diabetic complications” (Kaken Pharmaceutical Co., Ltd., priority 1984, dated 1987)", "molecular_target": "T1, aldose reductase from rat lens (Rattus norvegicus, UniProt P07943)", "T1 construct": "the supernatant was prepared as the crude enzyme solution; from tissue; host or cells: lens of male Wistar rats, 10,000 g supernatant of homogenate (crude enzyme)", "test": "Aldose reductase inhibiting activity", "assay_type": "biochemical", "details": "DL-glyceraldehyde substrate, Table 2, read-out: IC50 (50% inhibition concentration in M)", "experimental": "Wistar male rats were sacrificed by decapitation and the lenses were taken out to be homogenized with a 0.1M phosphate buffer [pH 6.8, containing 1 mM of mercaptoethanol and 1 mM of nicotinamide-adenine dinucleotide phosphate (NADP)]. The homogenate was then centrifuged at 10,000 g for 15 minutes and the supernatant was prepared as the crude enzyme solution."}
{"smiles": "COc1ccc(COc2ccc(S(=O)(=O)NCC(=O)O)c3cc(C(C)=O)oc23)cc1", "note": "[Compound 24, 2-acetyl-4-(N-carboxymethylsulfamoyl)-7-p-methoxybenzyloxybenzofuran]", "values": [{"measurement": "IC50", "value": 30, "unit": "nM"}]}
{"smiles": "CCCCCCOc1ccc(S(=O)(=O)NCC(=O)O)c2cc(C(C)=O)oc12", "note": "[Compound 6, 2-acetyl-4-(N-carboxymethylsulfamoyl)-7-n-hexyloxybenzofuran]", "values": [{"measurement": "IC50", "value": 50, "unit": "nM"}]}
{"smiles": "CC(=O)c1cc2c(S(=O)(=O)NCC(=O)O)ccc(O)c2o1", "note": "[Compound 28, 2-acetyl-4-(N-carboxymethylsulfamoyl)-7-hydroxybenzofuran]", "values": [{"measurement": "IC50", "value": 80, "unit": "nM"}]}
{"smiles": "CC(=O)c1cc2c(S(=O)(=O)N(CC(=O)O)Cc3ccccc3)ccc(OCc3ccccc3)c2o1", "note": "[Compound 35, 2-acetyl-4-(N-benzyl-N-carboxymethylsulfamoyl)-7-benzyloxybenzofuran]", "values": [{"measurement": "IC50", "value": 700, "unit": "nM"}]}
{"smiles": "CCCCOc1ccc(S(=O)(=O)NCC(=O)O)c2cc(C(C)=O)oc12", "note": "[Compound 4, 2-acetyl-4-(N-carboxymethylsulfamoyl)-7-n-butoxybenzofuran]", "values": [{"measurement": "IC50", "value": 40, "unit": "nM"}]}
{"smiles": "CC(=O)c1cc2c(S(=O)(=O)NCC(=O)O)ccc(C)c2o1", "note": "[Compound 15, 2-acetyl-4-(N-carboxymethylsulfamoyl)-7-methylbenzofuran]", "values": [{"measurement": "IC50", "value": 500, "unit": "nM"}]}
{"smiles": "CC(=O)c1cc2c(S(=O)(=O)NCC(=O)O)ccc(OCC#N)c2o1", "note": "[Compound 27, 2-acetyl-4-(N-carboxymethylsulfamoyl)-7-cyanomethyloxybenzofuran]", "values": [{"measurement": "IC50", "value": 100, "unit": "nM"}]}
{"smiles": "CC(=O)c1cc2c(S(=O)(=O)NCC(=O)O)ccc(OCC(C)Cl)c2o1", "note": "(centres unmarked) [Compound 25, 2-acetyl-4-(N-carboxymethylsulfamoyl)-7-(2-chloropropyloxy)benzofuran]", "values": [{"measurement": "IC50", "value": 200, "unit": "nM"}]}
{"smiles": "O=C(O)CNS(=O)(=O)c1ccc(OCC(=O)O)c2oc(C(=O)O)cc12", "note": "[Compound 12, 2-carboxy-4-(N-carboxymethylsulfamoyl)-7-(carboxymethoxy)benzofuran]", "values": [{"measurement": "IC50", "value": 200, "unit": "nM"}]}
{"smiles": "CC(=O)c1cc2c(S(=O)(=O)NCC(=O)O)c3c(cc2o1)OCO3", "note": "[Compound 17, 2-acetyl-4-(N-carboxymethylsulfamoyl)-5,6-methylenedioxybenzofuran]", "values": [{"measurement": "IC50", "value": 2000, "unit": "nM"}]}
{"smiles": "CCOc1ccc(S(=O)(=O)NCC(=O)O)c2cc(C(C)=O)oc12", "note": "[Compound 2, 2-acetyl-4-(N-carboxymethylsulfamoyl)-7-ethoxybenzofuran]", "values": [{"measurement": "IC50", "value": 100, "unit": "nM"}]}
{"smiles": "COc1ccc(S(=O)(=O)NCC(=O)O)c2cc(C(C)=O)oc12", "note": "[Compound 1, 2-acetyl-4-(N-carboxymethylsulfamoyl)-7-methoxybenzofuran]", "values": [{"measurement": "IC50", "value": 200, "unit": "nM"}]}
{"smiles": "C=CCCOc1ccc(S(=O)(=O)NCC(=O)O)c2cc(C(C)=O)oc12", "note": "[Compound 32, 2-acetyl-4-(N-carboxymethylsulfamoyl)-7-(3-butenyloxy)benzofuran]", "values": [{"measurement": "IC50", "value": 30, "unit": "nM"}]}
{"smiles": "CCc1oc2ccc(NC(C)=O)cc2c1S(=O)(=O)NCC(=O)O", "note": "[Compound 22, 2-ethyl-3-(N-carboxymethylsulfamoyl)-5-acetylaminobenzofuran]", "values": [{"measurement": "IC50", "value": 50, "unit": "nM"}]}
{"smiles": "COc1ccc(S(=O)(=O)NCC(=O)O)c2oc(C(C)=O)cc12", "note": "[Compound 18, 2-acetyl-4-methoxy-7-(N-carboxymethylsulfamoyl)benzofuran]", "values": [{"measurement": "IC50", "value": 5000, "unit": "nM"}]}
{"smiles": "CCC(C)c1ccc(S(=O)(=O)NCC(=O)O)c2cc(C(C)=O)oc12", "note": "(centres unmarked) [Compound 16, 2-acetyl-4-(N-carboxymethylsulfamoyl)-7-sec-butylbenzofuran]", "values": [{"measurement": "IC50", "value": 400, "unit": "nM"}]}
{"smiles": "C=CCOc1ccc(S(=O)(=O)NCC(=O)O)c2cc(C(C)=O)oc12", "note": "[Compound 31, 2-acetyl-4-(N-carboxymethylsulfamoyl)-7-allyloxybenzofuran]", "values": [{"measurement": "IC50", "value": 50, "unit": "nM"}]}
